Among the data in PubChem BioAssay (NCI) are TGI and GI50 values, retold here.

Test systems include COLO 205 colon; EKVX NSCLC; HCT-116 colon; HOP-62 NSCLC; MOLT-4 leukemia; OVCAR-5 ovarian; RPMI-8226 leukemia; SK-OV-3 ovarian; SNB-75 CNS; SW-620 colon.
What all share (assay): DTP human tumour cell line panel, 48 h

Where “and” joins values, the source holds several entries; their conditions need not be identical. Identical values can stand only once.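 Protocol summary: plate cells (96-well), add compound at 5 concentrations, incubate 48 h, interpolate endpoints linearly. Here, GI50 denotes the concentration required for 50% inhibition of growth. TGI is the concentration that stops growth completely.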 Where a SMILES comes first, the peptide text is derived from it. [ ]: non-standard residue; d: D form.

In the case of `O=C1C(=Cc2ccc(F)cc2)C(=O)c2ccccc21`, the TGI in the assay on COLO 205 colon, with EKVX NSCLC, with HCT-116 colon, in the assay with HOP-62 NSCLC, with MOLT-4 leukemia and in the assay on OVCAR-5 ovarian was greater than 100 µM each time. Further, the TGI in the assay with RPMI-8226 leukemia was greater than 100 µM; with SK-OV-3 ovarian, greater than 100 µM; with SNB-75 CNS, 95.4 µM; in the assay on SW-620 colon, greater than 100 µM.

With `COC(=O)C(=O)C(C#N)c1c(Cl)cccc1Cl` (configuration not stated), the TGI with COLO 205 colon, in the assay on EKVX NSCLC, in the assay on HCT-116 colon, in the assay with HOP-62 NSCLC, in the assay with MOLT-4 leukemia and in the assay on OVCAR-5 ovarian was greater than 100 µM throughout. The TGI with RPMI-8226 leukemia, in the assay on SK-OV-3 ovarian, in the assay with SNB-75 CNS and in the assay with SW-620 colon was greater than 100 µM in each case.

With `Cc1c2ccccc2c(C)n2c1nc1cc(Cl)c(Cl)cc12`, the GI50 was 19.2 µM with COLO 205 colon; 93.7 µM in the assay on EKVX NSCLC; 18.6 µM in the assay with HCT-116 colon; greater than 100 µM in the assay with HOP-62 NSCLC; 16 µM in the assay with MOLT-4 leukemia; greater than 100 µM in the assay with OVCAR-5 ovarian. Further, the GI50 in the assay with RPMI-8226 leukemia is 18.4 µM; in the assay with SK-OV-3 ovarian, greater than 100 µM; in the assay with SNB-75 CNS, 36.9 µM; with SW-620 colon, 74.1 µM. For the same compound, the total growth inhibition concentration (TGI) is greater than 100 µM with COLO 205 colon; greater than 100 µM in the assay on EKVX NSCLC; greater than 100 µM with HCT-116 colon; greater than 100 µM in the assay on HOP-62 NSCLC; 8.62 µM and 46.5 µM in the assay with MOLT-4 leukemia; greater than 100 µM in the assay on OVCAR-5 ovarian. The concentration for total growth inhibition (TGI) in the assay with RPMI-8226 leukemia, in the assay with SK-OV-3 ovarian, in the assay with SNB-75 CNS and in the assay with SW-620 colon was greater than 100 µM each time.

In the case of `C[C@@H](C[C@H](CCO)c1ccccc1)c1ccc2ccccc2c1`, the GI50 with COLO 205 colon is 1.75 µM; with EKVX NSCLC, 1.44 µM; in the assay on HCT-116 colon it was 1.36 µM; in the assay on HOP-62 NSCLC, 1.52 µM; in the assay with MOLT-4 leukemia it was 0.356 µM; with OVCAR-5 ovarian, 1.57 µM. Also, the GI50 with RPMI-8226 leukemia was 1.85 µM; in the assay with SK-OV-3 ovarian, 1.7 µM; in the assay on SNB-75 CNS, 1.35 µM; with SW-620 colon, 1.63 µM. Also, the TGI with COLO 205 colon is 3.41 µM; in the assay with EKVX NSCLC it was 2.82 µM; with HCT-116 colon, 2.67 µM; in the assay on HOP-62 NSCLC, 2.99 µM; with MOLT-4 leukemia, 1.61 µM; in the assay with OVCAR-5 ovarian, 3.04 µM. Moreover, the TGI with RPMI-8226 leukemia was 4.26 µM; with SK-OV-3 ovarian, 3.1 µM; in the assay on SNB-75 CNS, 2.76 µM; with SW-620 colon it was 3.14 µM.

For the compound `CSc1nc2ccc(C)cc2cc1/C=C1/C=C(c2ccccc2)NC1=O`, the GI50 is 5.9 µM in the assay on COLO 205 colon; 13.1 µM with EKVX NSCLC; 0.731 µM in the assay on HCT-116 colon; 2.42 µM in the assay with HOP-62 NSCLC; 15.5 µM in the assay on MOLT-4 leukemia; 19.3 µM in the assay with OVCAR-5 ovarian. Moreover, the GI50 with RPMI-8226 leukemia is 8.9 µM; in the assay on SK-OV-3 ovarian, 4.83 µM; with SNB-75 CNS, 2.81 µM; in the assay on SW-620 colon, 2.62 µM. Also, the TGI in the assay with COLO 205 colon was greater than 100 µM; with EKVX NSCLC, greater than 100 µM; in the assay on HCT-116 colon, 4.07 µM; in the assay on HOP-62 NSCLC, 11.7 µM; in the assay on MOLT-4 leukemia, greater than 100 µM; in the assay with OVCAR-5 ovarian, greater than 100 µM. Besides, the TGI in the assay on RPMI-8226 leukemia was greater than 100 µM; in the assay with SK-OV-3 ovarian, greater than 100 µM; in the assay with SNB-75 CNS, 14.8 µM; with SW-620 colon, 92.1 µM.

Regarding `CSCC[C@H](NC(=O)[C@@H](N)CC(N)=O)C(=O)N[C@@H](Cc1c[nH]c2ccccc12)C(=O)N[C@@H](CCC(N)=O)C(=O)N[C@@H](CCC(=O)O)C(=O)N[C@H](C(=O)NCC(=O)N[C@@H](CCCCN)C(=O)N[C@H](C)C(=O)O)C(C)C` (H-NMWQEVGK[dA]-OH), the TGI in the assay with COLO 205 colon, in the assay with EKVX NSCLC, in the assay on HCT-116 colon, with HOP-62 NSCLC, in the assay with MOLT-4 leukemia and with OVCAR-5 ovarian was greater than 100 µM in each case. Also, the TGI in the assay on RPMI-8226 leukemia, with SK-OV-3 ovarian, in the assay with SNB-75 CNS and in the assay on SW-620 colon was greater than 100 µM each time.

`NC1=C(O)C(=O)C(c2c[nH]c3ccc(OCc4ccccc4)cc23)O1` (configuration not stated): the TGI with COLO 205 colon, in the assay on EKVX NSCLC, in the assay with HCT-116 colon, with HOP-62 NSCLC, with MOLT-4 leukemia and in the assay on OVCAR-5 ovarian was greater than 100 µM in each case. Moreover, the TGI in the assay on RPMI-8226 leukemia is greater than 100 µM; in the assay on SK-OV-3 ovarian it was greater than 100 µM; in the assay with SNB-75 CNS, greater than 91.3 µM; in the assay on SW-620 colon, greater than 100 µM.

With `COc1cc([C@@H]2c3cc4c(cc3[C@@H](NCc3cccc(F)c3)C3COC(=O)[C@@H]32)OCO4)cc(OC)c1O` (some centres not stated), the TGI with COLO 205 colon is greater than 65 µM; with EKVX NSCLC, 38 µM; in the assay on HCT-116 colon, 20.1 µM; with HOP-62 NSCLC it was 4.76 µM; with MOLT-4 leukemia it was 5.59 µM; in the assay with OVCAR-5 ovarian, 51.3 µM. In addition, the TGI in the assay with RPMI-8226 leukemia was determined as 19.2 µM; with SK-OV-3 ovarian it was 35.3 µM; with SNB-75 CNS, 13.5 µM; in the assay with SW-620 colon, 22.5 µM.

With `COC(=O)c1cc(C)[nH]c2c(C)cc3nc4ccccc4c3c12`, the GI50 in the assay on COLO 205 colon is 12.7 µM; in the assay with EKVX NSCLC it was 6.5 µM; with HCT-116 colon, 10.2 µM; with HOP-62 NSCLC, 12.4 µM; in the assay on MOLT-4 leukemia, 4.83 µM; in the assay on OVCAR-5 ovarian it was 15.6 µM. For the same compound, the GI50 in the assay on RPMI-8226 leukemia is 5.75 µM; in the assay with SK-OV-3 ovarian it was 13.4 µM; in the assay on SNB-75 CNS, 8.5 µM; in the assay with SW-620 colon it was 7.91 µM. In addition, the TGI with COLO 205 colon turned out to be 25.8 µM; in the assay on EKVX NSCLC, 20.5 µM; in the assay with HCT-116 colon it was 23 µM; in the assay on HOP-62 NSCLC, 25.1 µM; with MOLT-4 leukemia, 42.2 µM; with OVCAR-5 ovarian it was 32.7 µM. Moreover, the TGI is 46.9 µM in the assay on RPMI-8226 leukemia, 26.5 µM in the assay with SK-OV-3 ovarian, 21 µM with SNB-75 CNS and 27 µM with SW-620 colon.

As to `CC1=C2C3OC(=O)C(C)C3C(O)C[C@@]2(C)C(=O)CC1` (some centres not stated), the TGI in the assay with COLO 205 colon, in the assay on EKVX NSCLC, with HCT-116 colon, in the assay with HOP-62 NSCLC, with MOLT-4 leukemia and in the assay with OVCAR-5 ovarian was greater than 100 µM each time. Also, the TGI in the assay with RPMI-8226 leukemia, in the assay on SK-OV-3 ovarian, in the assay on SNB-75 CNS and in the assay with SW-620 colon was greater than 100 µM throughout.

`COC(=O)Nc1nc2ccc(C(=O)c3cccs3)cc2[nH]1`: the TGI was 2.09 µM in the assay on COLO 205 colon; 15.2 µM and > 100 µM in the assay with EKVX NSCLC; 16.5 µM and 14.2 µM with HCT-116 colon; 32.8 µM and > 100 µM in the assay on HOP-62 NSCLC; 13 µM and > 100 µM with MOLT-4 leukemia; greater than 100 µM in the assay on OVCAR-5 ovarian. For the same compound, the TGI with SNB-75 CNS and in the assay with SW-620 colon was greater than 100 µM throughout. Further, the GI50 in the assay with EKVX NSCLC is 0.584 µM; in the assay with HCT-116 colon it was 0.0732 µM; in the assay on HOP-62 NSCLC, 1.11 µM; in the assay with MOLT-4 leukemia, 0.269 µM; in the assay on OVCAR-5 ovarian, 0.545 µM; in the assay on RPMI-8226 leukemia, 0.407 µM. Also, the GI50 is 0.347 µM with SK-OV-3 ovarian; < 0.0192 µM and 0.171 µM with SNB-75 CNS; 0.0672 µM with SW-620 colon.

Regarding `CC(C)OP(=O)(OC(C)C)/C(C#N)=C/c1c[nH]c2ccccc12`, the TGI in the assay with COLO 205 colon, in the assay on EKVX NSCLC, in the assay with HCT-116 colon, with HOP-62 NSCLC, in the assay on MOLT-4 leukemia and with OVCAR-5 ovarian was greater than 100 µM each time. Also, the TGI with RPMI-8226 leukemia, with SK-OV-3 ovarian, in the assay with SNB-75 CNS and in the assay on SW-620 colon was greater than 100 µM throughout.

Regarding `O=C1/C(=C/c2ccc(O)cc2)Oc2ccccc21`, the TGI in the assay with COLO 205 colon, in the assay on EKVX NSCLC, with HCT-116 colon, with HOP-62 NSCLC, in the assay on MOLT-4 leukemia and in the assay with OVCAR-5 ovarian was greater than 100 µM in each case. The TGI in the assay on RPMI-8226 leukemia, with SK-OV-3 ovarian, with SNB-75 CNS and with SW-620 colon was greater than 100 µM each time.

Take `O=C(CCc1cc(-c2ccc(F)cc2)n[nH]1)N(Cc1ccccc1)Cc1ccccc1`: the TGI with COLO 205 colon, in the assay on EKVX NSCLC, in the assay with HCT-116 colon, in the assay with HOP-62 NSCLC, in the assay with MOLT-4 leukemia and in the assay on OVCAR-5 ovarian was greater than 100 µM throughout. In addition, the TGI in the assay on RPMI-8226 leukemia, in the assay with SK-OV-3 ovarian, in the assay on SNB-75 CNS and in the assay on SW-620 colon was greater than 100 µM throughout.

For `Cc1ccc(C)c(NC(=O)C(=O)Nn2c(=S)[nH]c3ccccc3c2=O)c1`, the TGI with COLO 205 colon, with EKVX NSCLC, with HCT-116 colon, in the assay with HOP-62 NSCLC, with MOLT-4 leukemia and in the assay with OVCAR-5 ovarian was greater than 100 µM in each case. Further, the total growth inhibition concentration (TGI) in the assay on RPMI-8226 leukemia, in the assay with SK-OV-3 ovarian, in the assay on SNB-75 CNS and with SW-620 colon was greater than 100 µM in each case.

For `O/N=C1\C(=C\c2ccc3c(c2)OCCO3)CCCC1C(NO)c1ccc2c(c1)OCCO2` (configuration not stated), the TGI was 98.4 µM with COLO 205 colon; 69.6 µM with EKVX NSCLC; 40.4 µM with HCT-116 colon; 52.3 µM in the assay with HOP-62 NSCLC; 32.4 µM in the assay with MOLT-4 leukemia; greater than 100 µM in the assay with OVCAR-5 ovarian. For the same compound, the TGI with RPMI-8226 leukemia is greater than 100 µM; in the assay on SK-OV-3 ovarian, greater than 100 µM; with SNB-75 CNS, 72.6 µM; in the assay with SW-620 colon, greater than 100 µM.

What is called TGI is the concentration giving total growth inhibition. A lower TGI goes with more potent growth arrest. As usually defined, the GI50 is the concentration giving 50% growth inhibition.
